Assay results reported in patent US20070219183A1, “Dihydropyrazolo[1,5-A]pyrimidine and dihydroimidazo[1,5-A]pyrimidine derivatives and methods of use thereof” (Wyeth, priority 2006, published 2007).
pIC50: −log10 of the molar value.

Molecular target: T1, Flag/GST-tagged recombinant human B-Raf (Homo sapiens, UniProt P15056)
T1 construct: Flag; GST; made in house; host or cells: Sf9 insect cells (B-Raf); E. coli (Mek-1-GST)
Assay: B-Raf Kinase to MEK1 ELISA
Type: biochemical
Conditions: phosphorylation of GST-MEK1 (50 nM final), phospho-MEK1 antibody/Europium readout; 60 minutes at RT
From the text: • TITLE: B-Raf Kinase to MEK1 ELISA • PURPOSE: To discover B-Raf Kinase inhibitors that can inhibit growth of tumor cells which contain oncogenic forms of Receptor Tyrosine Kinases or K-Ras, or B-Raf kinase.
Reagents: Flag/GST-tagged recombinant human B-Raf produced in Sf9 insect cells, human non-active Mek-1-GST (recombinant protein produced in E. coli); and a phospho-MEK1 specific poly-clonal Ab from Cell Signaling Technology (cat. #9121).
B-Raf-1 is used to phosphorylate GST-MEK1. MEK1 phosphorylation is measured by a phospho-specific antibody (from Cell Signaling Technology, cat. #9121) that detects phosphorylation of two serine residues at positions 217 and 221 on MEK1.
1. Assay Dilution Buffer (ADB): 20 mM MOPS, pH 7.2, 25 mM β-glycerol phosphate, 5 mM EGTA, 1 mM sodium orthovanadate, 1 mM dithiothreitol.
2. Magnesium/ATP Cocktail: 200 μM cold ATP and 40 mM magnesium chloride in ADB.
4. Active Kinase: Active B-Raf: used at ˜20 ng per assay point.
5. Non-active GST-MEK1: Use at 100 nM (50 nM final).
7. Anti-GST Ab (Pharmacia)
8. Anti-rabbit Ab/Europium conjugate (Wallac)
1. Add 25 μl of ADB containing B-Raf and Mek per assay (i.e. per well of a 96 well plate)
2. Add 25 μl of 0.2 mM ATP and 40 mM magnesium chloride in ADB.
3. Incubate for 60 minutes at RT in a shaking incubator.
4. Transfer this mixture to an anti-GST Ab coated 96 well plate (Nunc Immunosorb plates coated o/n with a-GST.
5. Incubate for 60 minutes at 30° C. in a shaking incubator
6. Wash 3× with TBST, add Anti-Phospho MEK1 (1:1000)
7. Incubate for 60 minutes at 30° C. in a shaking incubator
8. Wash 3× with TBST, add Anti-rabbit Ab/Europium conjugate (Wallac) (1:500)
9. Incubate for 60 minutes at 30° C. in a shaking incubator
10. Add 100 ul of Wallac Delfia Enhancement Solution and shake for 10 minutes.
11. Read plates in Wallac Victor model Plate Reader.
12. Collect data analyze in Excel for single point and IC50 determinations.
• Single point assay—% inhibition at […] (% Inhibition=1−cpd.treated sample/untreated control) • IC50 determinations—done on cpds from single pt assays with >80% inhibition. Typically Raf-1 assay is run at cpd concentrations from 10 μM to 30 nM in half log dilutions. (% inhibition is determined for each cpd concentration) • Data handling—Data is analyzed in Excel, and will transferred to Radis.

T1 sequence (P15056 whole entry): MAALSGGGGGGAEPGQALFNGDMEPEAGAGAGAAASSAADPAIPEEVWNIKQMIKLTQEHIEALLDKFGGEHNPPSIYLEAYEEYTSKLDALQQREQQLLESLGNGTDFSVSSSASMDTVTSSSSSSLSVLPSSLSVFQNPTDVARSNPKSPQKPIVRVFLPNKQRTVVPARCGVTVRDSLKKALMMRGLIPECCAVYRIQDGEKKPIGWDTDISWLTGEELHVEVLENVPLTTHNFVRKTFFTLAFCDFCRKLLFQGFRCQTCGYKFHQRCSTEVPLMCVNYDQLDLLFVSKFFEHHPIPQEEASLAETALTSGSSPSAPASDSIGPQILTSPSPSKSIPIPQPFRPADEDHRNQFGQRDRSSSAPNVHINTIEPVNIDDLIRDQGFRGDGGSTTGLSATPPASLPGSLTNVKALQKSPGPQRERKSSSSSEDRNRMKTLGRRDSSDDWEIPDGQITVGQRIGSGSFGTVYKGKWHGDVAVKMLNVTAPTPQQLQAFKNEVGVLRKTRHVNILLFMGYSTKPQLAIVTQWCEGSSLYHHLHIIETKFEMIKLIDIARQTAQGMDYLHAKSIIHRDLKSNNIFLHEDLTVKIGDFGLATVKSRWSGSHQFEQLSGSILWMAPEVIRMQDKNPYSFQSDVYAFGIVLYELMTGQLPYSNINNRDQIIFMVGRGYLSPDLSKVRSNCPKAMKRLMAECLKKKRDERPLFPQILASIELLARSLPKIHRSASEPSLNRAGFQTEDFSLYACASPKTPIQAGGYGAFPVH

| SMILES | pIC50 |
| --- | --- |
| CC(C)(C)OC(=O)N1CC=C(c2cccc(N(C(=O)OC(C)(C)C)C(=O)c3cccc(C(F)(F)F)c3)c2)n2nccc21 [Example 12, tert-Butyl 7-(3-{(tert-butoxycarbonyl)[3-(trifluoromethyl)benzoyl]amino}phenyl)pyrazolo[1,5-a]pyrimidine-4(5H)-carboxylate 4(5H)-carboxylate] | < 5.00 |
| CCOC(=O)c1cnn2c1NCC=C2c1cccc(NC(=O)c2cccc(C(F)(F)F)c2)c1 [Example 8, Ethyl 7-(3-{[3-(trifluoromethyl)benzoyl]amino}phenyl)-4,5-dihydropyrazolo[1,5-a]pyrimidine-3-carboxylate] | 6.56 |
| CC(C)(C)OC(=O)NCC(=O)N1CC=C(c2cccc(NC(=O)c3cccc(C(F)(F)F)c3)c2)n2nccc21 [Example 14, tert-Butyl {2-oxo-2-[7-(3-{[3-(trifluoromethyl)benzoyl]amino}phenyl)pyrazolo[1,5-a]pyrimidin-4(5H)-yl]ethyl}carbamate] | < 5.00 |
| CS(=O)(=O)N1CC=C(c2cccc(NC(=O)c3cccc(C(F)(F)F)c3)c2)n2nccc21 [Example 2, N-{3-[4-(Methylsulfonyl)-4,5-dihydropyrazolo[1,5-a]pyrimidin-7-yl]phenyl}-3-(trifluoromethyl)benzamide] | 6.17 |
| NCC(=O)N1CC=C(c2cccc(NC(=O)c3cccc(C(F)(F)F)c3)c2)n2nccc21 [Example 15, N-[3-(4-Glycyl-4,5-dihydropyrazolo[1,5-a]pyrimidin-7-yl)phenyl]-3-(trifluoromethyl)benzamide] | < 5.00 |
| CC(=O)N1CC=C(c2cccc(NC(=O)c3cccc(C(F)(F)F)c3)c2)n2nccc21 [Example 10, N-[3-(4-Acetyl-4,5-dihydropyrazolo[1,5-a]pyrimidin-7-yl)phenyl]-3-(trifluoromethyl)benzamide] | 5.42 |
| O=C(Nc1ccc(Cl)c(C2=CCNc3ccnn32)c1)c1cccc(C(F)(F)F)c1 [Example 20, N-[4-Chloro-3-(4,5-dihydropyrazolo[1,5-a]pyrimidin-7-yl)phenyl]-3-(trifluoromethyl)benzamide] | 6.79 |
| CC(C)(C)OC(=O)N1CC=C(c2cccc(NC(=O)c3cccc(C(F)(F)F)c3)c2)n2nccc21 [Example 6, tert-Butyl 7-(3-{[3-(trifluoromethyl)benzoyl]amino}phenyl)pyrazolo[1,5-a]pyrimidine-4(5H)-carboxylate] | 6.09 |
| NCCC(=O)N1CC=C(c2cccc(NC(=O)c3cccc(C(F)(F)F)c3)c2)n2nccc21 [Example 18, N-[3-(4-β-Alanyl-4,5-dihydropyrazolo[1,5-a]pyrimidin-7-yl)phenyl]-3-(trifluoromethyl)benzamide] | < 5.00 |
| CC(=O)NCCC(=O)N1CC=C(c2cccc(NC(=O)c3cccc(C(F)(F)F)c3)c2)n2nccc21 [Example 19, N-{3-[4-(N-Acetyl-β-alanyl)-4,5-dihydropyrazolo[1,5-a]pyrimidin-7-yl]phenyl}-3-(trifluoromethyl)benzamide] | 6.15 |
| CCNC(=O)N1CC=C(c2cccc(NC(=O)c3cccc(C(F)(F)F)c3)c2)n2nccc21 [Example 9, N-Ethyl-7-(3-{[3-(trifluoromethyl)benzoyl]amino}phenyl)pyrazolo[1,5-a]pyrimidine-4(5H)-carboxamide] | < 5.00 |
| CCOC(=O)c1cnn2c1N(C(C)=O)CC=C2c1cccc(NC(=O)c2cccc(C(F)(F)F)c2)c1 [Example 11, Ethyl 4-acetyl-7-(3-{[3-(trifluoromethyl)benzoyl]amino}phenyl)-4,5-dihydropyrazolo[1,5-a]pyrimidine-3-carboxylate] | 6.24 |
| CC(=O)NCC(=O)N1CC=C(c2cccc(NC(=O)c3cccc(C(F)(F)F)c3)c2)n2nccc21 [Example 16, N-{3-[4-(N-Acetylglycyl)-4,5-dihydropyrazolo[1,5-a]pyrimidin-7-yl]phenyl}-3-(trifluoromethyl)benzamide] | 5.75 |
| O=C(Nc1cccc(C2=CCNc3ccnn32)c1)c1cccc(C(F)(F)F)c1 [Example 1, N-[3-(4,5-dihydropyrazolo[1,5-a]pyrimidin-7-yl)phenyl]-3-(trifluoromethyl)benzamide] | < 5.00 |
| CC#CCN1CC=C(c2cccc(NC(=O)c3cccc(C(F)(F)F)c3)c2)n2nccc21 [Example 7, N-[3-(4-But-2-yn-1-yl-4,5-dihydropyrazolo[1,5-a]pyrimidin-7-yl)phenyl]-3-(trifluoromethyl)benzamide] | 6.06 |
| CCOC(=O)N1CC=C(c2cccc(NC(=O)c3cccc(C(F)(F)F)c3)c2)n2nccc21 [Example 4, Ethyl 7-(3-{[3-(trifluoromethyl)benzoyl]amino}phenyl)pyrazolo[1,5-a]pyrimidine-4(5H)-carboxylate] | 6.43 |
| CCOC(=O)c1cnn2c1N(C(=O)OC)CC=C2c1cccc(NC(=O)c2cccc(C(F)(F)F)c2)c1 [Example 13, 3-Ethyl 4-methyl 7-(3-{[3-(trifluoromethyl)benzoyl]amino}phenyl)pyrazolo[1,5-a]pyrimidine-3,4(5H)-dicarboxylate] | 6.90 |
| COC(=O)N1CC=C(c2cccc(NC(=O)c3cccc(C(F)(F)F)c3)c2)n2nccc21 [Example 3, Methyl 7-(3-{[3-(trifluoromethyl)benzoyl]amino}phenyl)pyrazolo[1,5-a]pyrimidine-4(5H)-carboxylate] | 6.79 |
| CC(C)(C)OC(=O)NCCC(=O)N1CC=C(c2cccc(NC(=O)c3cccc(C(F)(F)F)c3)c2)n2nccc21 [Example 17, tert-Butyl {3-oxo-3-[7-(3-{[3-(trifluoromethyl)benzoyl]amino}phenyl)pyrazolo[1,5-a]pyrimidin-4(5H)-yl]propyl}carbamate] | 6.41 |
| CC(C)NC(=O)N1CC=C(c2cccc(NC(=O)c3cccc(C(F)(F)F)c3)c2)n2nccc21 [Example 5, N-isopropyl-7-(3-{[3-(trifluoromethyl)benzoyl]amino}phenyl)pyrazolo[1,5-a]pyrimidine-4(5H)-carboxamide] | 5.79 |
